Assay results reported in paper PMC9682480, ““Vermellogens” and the Development of CB[8]-Based Supramolecular Switches Using pH-Responsive and Non-Toxic Viologen Analogues” (Journal of the American Chemical Society, 2022).
Each block holds one compound with its values, some of them ahead of it.

How the values were obtained:
HFF-1 cells = experiment: Cell viability assay (WST-1) in human fibroblastic cell line; format: cell-based
Method: To conclude with this part of our work on the molecular responsiveness of the “vermellogens,” we decided to substantiate whether the bis-pyridinium core in the compounds would have or not a viologen-like reversible redox behavior. Thus, cyclic voltamograms were recorded for RaH·2Cl (2 mM) in buffered aqueous solutions at pH = 2 (0.05 M H3PO4/NaH2PO4), 7 (0.05 M NaH2PO4/Na2HPO4), and 12 (0.05 M Na2HPO4/Na3PO4). Those shown both the acidic (RaH^2+) and basic (Ra^+) forms of the “red thread” owning non-reversible redox peaks (Figure 1b).
Fibroblast cells (HFF-1; ATTC® SCRC-1041TM) were maintained in Dulbecco’s modified eagle’s medium (DMEM) supplemented with 10% FBS and 1% P/S and kept at 37 °C in a humidified atmosphere containing 5% CO2 until their use. HFF-1 cells were seeded in 96 well-plates at an initial density of 10^4 cells/well and allowed to attach for 24 h at 37 °C. The following day, culture medium was removed, replenished by fresh medium (90 µl) and cells were exposed to different concentration of R aH·2Cl and MV (10 µl; final concentrations 0.01, 0.05, 0.1, 0.5 and 1 mM). Control conditions included cells cultured in culture medium, but in absence of compound. Cells were further incubated for 24 h at 37°C and cell viability was monitored using the tetrazolium salt (WST-1) method.6 Absorbance at 450 nm was measured using a Synergy HTX Plate Reader (Biotek, Winooski, VT, USA) and the percent of cell viability (%) was calculated as follows:
Viability (%) = […]
Where Asample and Anegative control depict those absorbance values measured at 450 nm in presence and in absence of compound, respectively. All conditions were tested by triplicate in two independent experiments. Data were expressed as mean ± standard deviation (SD). Statistical analysis was performed by two-ways and one-way ANOVA with Tukey’s LSD post hoc test using IBM SPSS Statistics version 23. A p ≤ 0.05 was considered statistically significant.
Figure S 138: Compounds tested in WST-1 assay for cell viability.
6 Carballo-Pedrares, N.; Kattar, A.; Concheiro, A.; Alvarez-Lorenzo, C.; Rey-Rico, Niosomes-based gene delivery systems for effective transfection of human mesenchymal stem cells. A. Matter. Sci. Eng. 2021, 18, 112307.

[1] = Halide recognition in acetonitrile (iodide); format: binding; settings: UV–vis titrations and 1H-NMR
From the text: (§1) Finally, diffraction-grade single crystals for RaH·2Cl could be obtained, with the solid-state structure showing hydrogen bonding between the hydrazone moiety with a chloride counterion and a crystallization water (Figure 1a).[34] Moved by this observation, and other reported evidence regarding the anion binding abilities of this type of hydrazone moieties,[30],[35] we decided to study the ability of the “red thread” RaH^2+ to recognize halide anions in acetonitrile by UV–vis titrations and ^1H-NMR. […] Conversely, the addition of increasing amounts of TBACl/Br to 33–20 μM solutions of RaH·2PF6, led to the absorption bands associated with the free form of RaH^2+ at λmax = 370 nm, decreasing in favor of new bands with a slight shift to λmax = 378 and 370 nm, tentatively assigned to RaH^2+···Cl/Br complexes and with the data fitting appropriately to 1:1 association processes (Ka = (7.03 ± 0.14)·10^4 M^–1 for Cl^–, (1.41 ± 0.07)·10^4 M^–1 for Br^–). In both cases, the results agreed with those expected for the recognition through hydrogen bonding between the hydrazone group and the anions, resulting in a bathochromic shift of the absorption band.[30],[35] […]
(§2) NMR titrations could not be performed due to the precipitation of R aH2+ upon 2 eqv. of the corresponding salt. Spectra were recorded at 0, 0.5, 1, 2 and 4 eq. of the corresponding salt to follow the chemical shift of the […]

[2] = Halide recognition by UV–vis titration in acetonitrile (TBABr); format: binding
From the text: (§3) Finally, diffraction-grade single crystals for RaH·2Cl could be obtained, with the solid-state structure showing hydrogen bonding between the hydrazone moiety with a chloride counterion and a crystallization water (Figure 1a).[34] Moved by this observation, and other reported evidence regarding the anion binding abilities of this type of hydrazone moieties,[30],[35] we decided to study the ability of the “red thread” RaH^2+ to recognize halide anions in acetonitrile by UV–vis titrations and ^1H-NMR. […] Conversely, the addition of increasing amounts of TBACl/Br to 33–20 μM solutions of RaH·2PF6, led to the absorption bands associated with the free form of RaH^2+ at λmax = 370 nm, decreasing in favor of new bands with a slight shift to λmax = 378 and 370 nm, tentatively assigned to RaH^2+···Cl/Br complexes and with the data fitting appropriately to 1:1 association processes (Ka = (7.03 ± 0.14)·10^4 M^–1 for Cl^–, (1.41 ± 0.07)·10^4 M^–1 for Br^–). […]
as §2
(§4) Concentration (μM) Absorbance Residual […]

[3] = Halide recognition by UV–vis titration in acetonitrile (TBACl); format: binding
From the text: as §3, §2, §4

[4] = Fluoride interaction by UV–vis titration in acetonitrile (TBAF); format: binding; settings: 1 μM, 2:1 process
From the text: as §1, §2

[5] = pKa determination by UV–vis acid–base titrations in water; format: physicochemical; settings: for pKa value (linear fitting of pH against log absorbance ratio): 20 μM chloride salt in NaH2PO4/Na2HPO4, KHCO3/K2CO3 and Na2HPO4/Na2PO4 buffers, supplement; for pKa: aqueous phosphate and carbonate buffers, RH^2+/R^+ or MH^+/M, UV–vis titrations in water, chloride salts
From the text: Next, in our study of the stimuli-responsiveness of the “vermellogens”, we proceeded to verify the new analogues as pH-based molecular switches, by conducting UV–vis acid–base titrations in water for the compounds Ra–eH·2Cl. All the new “vermellogens” show similar π–π* main absorption bands centered at λ^1max = 366–377 nm at neutral or slightly acidic pH. An increase in the basicity of the solution produces the decrease of the aforementioned bands and the concomitant rise of new absorptions associated with the deprotonated compounds and centered at λ^2max = 460–475 nm. The pKa values obtained by the aforementioned UV–vis titrations for Ra–eH·2Cl are quite similar, showing no dependence on the substituent on the pyridinium N^+ atoms within their structures (Table 1 and Figures S115–S125). Furthermore, to evaluate the effect of the two different pyridinium heterocycles on the observed anomalous pKa’s, two analogues were prepared (Ma–bH·Cl), in which one of these moieties was substituted by a neutral phenyl ring.
4.2. pK a determination for Rb by UV-Vis
(§5) Figure S 116: UV-Vis spectra for the titration of R b·2Cl at 20 μM in NaH 2PO4/Na2HPO4, KHCO3/K2CO3 and Na2HPO4/Na2PO4 buffers. On the top right: Absorption of R b+ at λ = 474 nm plotted against pH. pH V (mL) of V (mL) of V (mL) of V (mL) of V (mL) of ABS log[A474-(measured) solution A solution B solution C solution D solution E (474 ARb2+)/(ARb1+- […]
(§6) Table S 4: Experimental data obtained for the UV-Vis titration of R b·2Cl at 20 μM in NaH2PO4/Na2HPO4, KHCO3/K2CO3 and Na2HPO4/Na2PO4 buffer. Solution A: 20 μM of R b·2Cl and 0.05 M of NaH2PO4. Solution B: 20 μM of R b·2Cl and 0.05 M of NaHPO4. Solution C: 20 μM of R b·2Cl and 0.05 M of Na2PO4. Solution D: 20 μM of R b·2Cl and 0.05 M of KHCO3. Solution E: 20 μM of R b·2Cl and 0.05 M of […]
4.4. pK a determination for Rc by UV-Vis
as §5, with “119:” for “116:”, “c·2Cl” for “b·2Cl”, “c+” for “b+”, “466” for “474”, “log[A466-(measured)” for “log[A474-(measured)”, “(466 ARc2+)/(ARc+-” for “(474 ARb2+)/(ARb1+-”
Table S 5: Experimental data obtained for the UV-Vis titration of R c·2Cl at 20 μM in NaH2PO4/Na2HPO4, KHCO3/K2CO3 and Na2HPO4/Na2PO4 buffer. Solution A: 20 μM of Rc·2Cl and 0.05 M of NaH2PO4. Solution B: 20 μM of R c·2Cl and 0.05 M of NaHPO4. Solution C: 20 μM of R c·2Cl and 0.05 M of Na2PO4. Solution D: 20 μM of R c·2Cl and 0.05 M of KHCO3. Solution E: 20 μM of R c·2Cl and 0.05 M of […]
4.6. pK a determination for Rd by UV-Vis
as §5, with “122:” for “116:”, “d·2Cl” for “b·2Cl”, “d+” for “b+”, “475” for “474”, “log[A475-(measured)” for “log[A474-(measured)”, “(475 ARd2+)/(ARd1+-” for “(474 ARb2+)/(ARb1+-”
as §6, with “6:” for “4:”, “d·2Cl” for “b·2Cl”
4.8. pK a determination for Re by UV-Vis
as §5, with “125:” for “116:”, “e·2Cl” for “b·2Cl”, “e+” for “b+”, “460” for “474”, “log[A460-(measured)” for “log[A474-(measured)”, “(460 ARe2+)/(ARe1+-” for “(474 ARb2+)/(ARb1+-”
Table S 7: Experimental data obtained for the UV-Vis titration of R e·2Cl at 20 μM in NaH2PO4/Na2HPO4, KHCO3/K2CO3 and Na2HPO4/Na2PO4 buffer. Solution A: 20 μM of R e·2Cl and 0.05 M of […]

SMILES: C[n+]1ccc(-c2cc[n+](C)cc2)cc1 [MV^2+, paraquat, reference compound]
- decrease of cell survival percentages relative to RaH^2+ (HFF-1 cells; HFF-1, from 0.5 mM): ~3 fold
- cell survival (HFF-1 cells; HFF-1, from 0.5 mM concentration, 24 h, WST-1): severe decrease in cell survival

SMILES: C[n+]1ccc(/C=N/Nc2cc[n+](C)cc2)cc1 [RaH·2PF6]
- interaction with I^– [1]: no interaction
- Ka (1:1 association with Br^–) [2]: (1.41 ± 0.07)·10^4 M^–1
- Ka (1:1 association with Cl^–) [3]: (7.03 ± 0.14)·10^4 M^–1
- Ka1 (first F^– equivalent, interaction with hydrazone group) [4]: (4.49 ± 0.77)·10^7 M^–1
- Ka2 (deprotonation of the NH assisted by a second fluoride) [4]: (5.43 ± 0.59)·10^7 M^–1

- pKa value (linear fitting of pH against log absorbance ratio) [5]: 8.6
- pKa [5]: 8.6
SMILES: C(=N\Nc1cc[n+](Cc2ccccc2)cc1)/c1cc[n+](Cc2ccccc2)cc1 [RbH·2X]

- pKa value (linear fitting of pH against log absorbance ratio) [5]: 8.6
- pKa [5]: 8.7
SMILES: C[n+]1ccc(N/N=C/c2cc[n+](Cc3ccccc3)cc2)cc1 [RcH·2X]

- pKa [5]: 8.6
SMILES: C[n+]1ccc(/C=N/Nc2cc[n+](Cc3ccccc3)cc2)cc1 [RdH·2X]

- pKa [5]: 9.6
SMILES: C/C(=N\Nc1cc[n+](C)cc1)c1cc[n+](C)cc1 [ReH·2X]
